Results published in patent US20040110732A1, “Pharmaceutical composition for transdermal or transmucosal administration comprising at least one progestin and/or at least one oestrogen, process for preparing it and uses thereof” (BESINS INTERNATIONAL BELGIQUE, priority 2002, published 2004).

Assay: In vitro percutaneous absorption of 3H estradiol in Franz-type diffusion cells
Experimental: The in vitro percutaneous absorption was studied quantitatively on biopsies of dermatomed human ventral skin, placed in a 1.77 cm^2 Franz static diffusion cell, which allows the dermis to be placed in contact with a survival liquid into which the substance absorbed through the skin will be dosed. The survival liquid consists of a solution of 9 g/L sodium chloride supplemented with 15 g/L of serum albumin. The cells are placed under ambient atmosphere and thermostatically maintained at 37° C. 10 μl of preparation are applied to the entire surface of the epidermis circumscribed by the glass cylinder. During the experiment, samples of the survival liquid are taken at times 2 h, 4 h, 6 h, 8 h and 24 h. For each time, the survival liquid taken is replaced with fresh liquid.

cumulative absorption at 24 hours of estradiol (control of the ethylglycolic acid test: aqueous-alcoholic estradiol 0.06% solution without hydroxy acid): 5.26%±1.26% | percutaneous absorption of estradiol (control of the glycolic acid test: aqueous-alcoholic estradiol 0.06% solution without hydroxy acid): 6.96%±2.95% | percutaneous absorption of estradiol at 24 hours (control of the lactic acid test: aqueous-alcoholic solution of estradiol 0.06%, 50% absolute alcohol, no hydroxy acid): 5.50%±1.76% | cumulative absorption at 24 hours of estradiol (ethylglycolic acid at 5%, estradiol 0.06%): 8.90%±1.29% | percutaneous absorption of estradiol (glycolic acid at 5% in aqueous-alcoholic solution containing 40% absolute ethanol, estradiol 0.06%): 17.73%±2.96% | flows between 8 and 24 hours (lactic acid at 5% in 50% ethanol solution, compared with the control): significantly increasing | percutaneous absorption of estradiol at 24 hours (lactic acid at 5% in aqueous-alcoholic solution containing 50% ethanol, estradiol 0.06%): 13.80%±6.78%
Compound: C[C@]12CC[C@@H]3c4ccc(O)cc4CC[C@H]3[C@@H]1CC[C@@H]2O [estradiol, 17β-estradiol]
